{
  "source": "patent US9539257B2",
  "about": "“Method of treating cancer” (NOVARTIS AG, priority 2009, dated 2017)",
  "key": {"DQA1*0201/DQB1*0201g": {"test_system": "DQA1*0201/DQB1*0201g", "assay": "ALT case/non-case association with DQ2.2 serotype allele combinations, confirmatory study", "format": "in vivo, human", "description": "(§1) Genetic markers selected for confirmatory were required to achieve pre-defined p-value thresholds in the exploratory analysis of p≦0.05 for HLA markers, p≦0.01 for candidate gene markers and p≦10-4 for whole genome screen SNPs. For markers confirmed at p≦0.01, measures of potential clinical utility were evaluated. An allele or genotype(s) was designated which conferred a higher risk of ALT elevation and this was compared to the non-risk allele(s)/genotype(s) and the odds ratio (OR), positive predictive value (PPV), and negative predictive value (NPV) calculated.\nHLA Class II peptides form heterodimer proteins where DQA1/DQB1 and DRA/DRB1 combinations create discrete antigen binding sites (Jones E Y, et al. Nature Reviews: Immunology 2006; 6; 271-282). HLA-DRA is functionally monomorphic and no further marker discrimination can be gained by evaluating specific allelic combinations. In contrast, both DQA1*0201 and DQB1*0202 are polymorphic."}, "TNXB rs12153855": {"test_system": "TNXB rs12153855", "assay": "ALT case-control genetic association, exploratory study", "format": "in vivo, human", "settings": "TNXB rs12153855 CC/CT", "excerpt": "(§2) Germline DNA was extracted from peripheral blood (QiAmp DNA Blood Kit, Qiagen, Valencia, Calif.). This study evaluated candidate gene and genome-wide screening, performed in parallel, to detect case-control association signals in the exploratory cohort. Class I and II HLA genes (seven genes to 4-digit and three genes to 2-digit resolution) were typed by Laboratory Corporation of America (Burlington, N.C.) and Histogenetics (Ossining, N.Y.), or at GSK using the LABType® SSO Typing Test (One Lambda, Canoga Park, Calif.). […] Whole genome screen genotyping on the Illumina Human 1M-Duo platform was also conducted (Expression Analysis, Durham, N.C.).\n(§3) For the exploratory study, initial analysis of the GWAS was done using logistic regression, carried out in PLINK (Purcell S, et al. American Journal of Human Genetics 2007; 81, 559-575) using the genotypic test option when three genotype classes were observed, or the additive test option when only two genotype classes were observed. […] In addition to the genotype term, all models included baseline ALT xULN, treatment group (for the exploratory study), and a sufficient number of principal components to account for potential confounding by population structure. Principal components were obtained from EIGENSOFT (Patterson N. et al. PLoS Genetics 2006; 2: e190), using study subjects and HapMap founders.\nas §1"}, "[1]": {"assay": "On-treatment liver chemistry (ALT, TBL, ALP), exploratory study PGx population, twelve AMBC trials"}, "UGT1A1*28": {"test_system": "UGT1A1*28", "settings": "exploratory", "description": "The two phenotypes that were evaluated were maximum on-treatment liver chemistry values for ALT and TBL with respect to the upper limit of normal. These phenotypes were evaluated separately in case-control and quantitative trait analyses and jointly in a combined case-control analysis. ALT and TBL cases were defined as maximum on-treatment elevations of ≧3×ULN and ≧1.5×ULN, respectively, and control subjects were defined as maximum on-treatment ALT or TBL of ≦1×ULN.\n2) As genetic understanding of drug-induced liver injury is limited, a comprehensive drug induced liver injury (DILI) panel, developed by GSI in consultation with external liver experts was also evaluated. This DILI panel is comprised of approximately 6500 single nucleotide polymorphisms (SNPs) in 270 gene regions derived from the postulated mechanisms involved in the pathophysiology of DILI. In both approaches, genetic variation in each gene region was investigated using tag SNPs selected from the International HapMap project and/or high density SNP coverage consisting of all functional SNPs with a previously recorded genotype to phenotype correlation. […] Evaluation of HLA genes focused on a subset of the total number of patients consisting of all ALT cases (N=47) and matched controls (N=47)."}, "HLA-DRB1*0701 [2]": {"test_system": "HLA-DRB1*0701", "quoted_text": "The two phenotypes that were evaluated were maximum on-treatment liver chemistry values for ALT and TBL with respect to the upper limit of normal. These phenotypes were evaluated separately in case-control and quantitative trait analyses and jointly in a combined case-control analysis. ALT and TBL cases were defined as maximum on-treatment elevations of ≧3×ULN and ≧1.5×ULN, respectively, and control subjects were defined as maximum on-treatment ALT or TBL of ≦1×ULN. Approximately 950 patients with an adequate, fully consented DNA sample had available clinical data for these phenotypes. After subject genotyping quality control was completed, a total of 947 patients remained for pharmacogenetic analyses on at least one genetic variant."}, "HLA-DQA1*0201": {"test_system": "HLA-DQA1*0201", "excerpt": "as §2, §3, §1"}, "HLA-DQB1*0202": {"test_system": "HLA-DQB1*0202", "settings": "Exploratory study", "excerpt": "as §2, §3, §1"}, "HLA-DRB1*0701 [3]": {"test_system": "HLA-DRB1*0701", "settings": "Exploratory study", "excerpt": "as §2, §3, §1"}, "[4]": {"settings": "cancer patients receiving lapatinib; cited from earlier work"}, "[5]": {"settings": "DQA1*0201/DQB1*0201g carriage, cases vs non-cases, ALT > 3 xULN, Confirmatory study"}, "[6]": {"settings": "DQA1*0201/DQB1*0201g, ALT > 3 xULN threshold, Confirmatory study"}, "[7]": {"settings": "Exploratory Study ALT Cases (N=37)"}, "[8]": {"settings": "Exploratory Study ALT Cases with HLA Data Available, at time of maximum ALT"}, "[9]": {"settings": "Exploratory Study ALT Controls (N=286)"}, "[10]": {"settings": "Exploratory Study PGx Population (12 trials, N=901), lapatinib monotherapy or combinations"}, "[11]": {"settings": "Exploratory Study PGx Population (N=901)"}},
  "data": [
    {"smiles": "CS(=O)(=O)CCNCc1ccc(-c2ccc3ncnc(Nc4ccc(OCc5cccc(F)c5)c(Cl)c4)c3c2)o1", "note": "[lapatinib, N-(3 chloro-4-{[(3-fluorophenyl)methyl]oxy}phenyl)-6-[5-({[2 (methylsulfonyl)ethyl]amino}methyl)-2-furanyl]-4-quinazolinamine bis(4 methylbenzenesulfonate)monohydrate]", "values": [
      {"measurement": "HLA Carrier: Cases (number)", "setting": "DQA1*0201/DQB1*0201g; DQA1*0201/DQB1*0201g (DQ2.2 serotype), ALT Cases > 3 xULN, Confirmatory study", "value": 17},
      {"measurement": "NPV (CI)", "setting": "DQA1*0201/DQB1*0201g; [5]", "value": "0.976 (0.951, 0.990)"},
      {"measurement": "OR (CI)", "setting": "DQA1*0201/DQB1*0201g; [5]", "value": "10.2 (3.8, 30.0)"},
      {"measurement": "PPV (CI)", "setting": "DQA1*0201/DQB1*0201g; [5]", "value": "0.20 (0.12, 0.30)"},
      {"measurement": "HLA Carrier: Non Cases (number)", "setting": "DQA1*0201/DQB1*0201g; [6]", "value": 67},
      {"measurement": "HLA Non-Carrier: Non Cases (number)", "setting": "DQA1*0201/DQB1*0201g; [6]", "value": 281},
      {"measurement": "HLA Non-Carrier: Cases (number)", "setting": "DQA1*0201/DQB1*0201g; DQA1*0201/DQB1*0201g, ALT Cases > 3 xULN, Confirmatory study", "value": 7},
      {"measurement": "DQA1*0201/DQB1*0201g allele combinations in ALT cases", "setting": "DQA1*0201/DQB1*0201g; confirmatory study (17/24)", "value": 71, "unit": "%"},
      {"measurement": "DQA1*0201/DQB1*0201g allele combinations in non-cases", "setting": "DQA1*0201/DQB1*0201g; confirmatory study (67/348)", "value": 19, "unit": "%"},
      {"measurement": "Carriage: cases (%)", "setting": "TNXB rs12153855; ALT cases", "value": "(35%)"},
      {"measurement": "Carriage: cases (n/N)", "setting": "TNXB rs12153855; ALT cases", "value": "12/34"},
      {"measurement": "Carriage: controls (%)", "setting": "TNXB rs12153855; ALT controls", "value": "(17%)"},
      {"measurement": "Carriage: controls (n/N)", "setting": "TNXB rs12153855; ALT controls", "value": "47/281"},
      {"measurement": "Maximum on treatment ALT xULN: Mean(SD)", "setting": "[1]; [7]", "value": "6.47(6.57) xULN"},
      {"measurement": "Maximum on treatment ALT xULN: Median", "setting": "[1]; [7]", "value": 4.70, "unit": "xULN"},
      {"measurement": "N of ALT cases with Cholestatic injury type", "setting": "[1]; [8]", "value": 4},
      {"measurement": "N of ALT cases with Hepatocellular injury type", "setting": "[1]; [8]", "value": 21},
      {"measurement": "N of ALT cases with Mixed injury type", "setting": "[1]; [8]", "value": 10},
      {"measurement": "Maximum on treatment ALT xULN: Mean(SD)", "setting": "[1]; [9]", "value": "0.59(0.21) xULN"},
      {"measurement": "Maximum on treatment ALT xULN: Median", "setting": "[1]; [9]", "value": 0.59, "unit": "xULN"},
      {"measurement": "Maximum on treatment ALT xULN: Mean(SD)", "setting": "[1]; [10]", "value": "1.29 (1.96) xULN"},
      {"measurement": "Maximum on treatment ALT xULN: Median", "setting": "[1]; [10]", "value": 0.80, "unit": "xULN"},
      {"measurement": "Maximum on treatment ALP xULN: Mean(SD)", "setting": "[1]; [11]", "value": "1.34 (1.40) xULN"},
      {"measurement": "Maximum on treatment ALP xULN: Median", "setting": "[1]; [11]", "value": 0.91, "unit": "xULN"},
      {"measurement": "Maximum on treatment ALT > 3 xULN (%)", "setting": "[1]; [11]", "value": 7.3, "unit": "%"},
      {"measurement": "Maximum on treatment ALT > 5 xULN (%)", "setting": "[1]; [11]", "value": 2.7, "unit": "%"},
      {"measurement": "Maximum on treatment ALT > 8 xULN (%)", "setting": "[1]; [11]", "value": 1.0, "unit": "%"},
      {"measurement": "Maximum on treatment TBL xULN: Median", "setting": "[1]; [11]", "value": 0.68, "unit": "xULN"},
      {"measurement": "TBL cases with TA7/TA7 genotype", "setting": "UGT1A1*28; TBL cases (N=60)", "value": "Thirty five"},
      {"measurement": "TBL cases with at least one TA7 allele", "setting": "UGT1A1*28; TBL cases (N=60)", "value": 82, "unit": "%"},
      {"measurement": "TBL controls with TA7/TA7 genotype", "setting": "UGT1A1*28; controls (N=396)", "value": 5, "unit": "%"},
      {"measurement": "TBL controls with at least one TA7 allele", "setting": "UGT1A1*28; controls (N=396)", "value": 48, "unit": "%"},
      {"measurement": "combined ALT/TBL cases with at least one of the significant HLA alleles", "setting": "HLA-DRB1*0701 [2]; exploratory, 4/13 combined cases, HLA-DRB1*0701 or HLA-B*4403", "value": 31, "unit": "%"},
      {"measurement": "ALT cases with at least one copy of HLA-DRB1*0701", "setting": "HLA-DRB1*0701 [2]; matched case-control, 47 cases", "value": 40, "unit": "%"},
      {"measurement": "ALT controls with at least one copy of HLA-DRB1*0701", "setting": "HLA-DRB1*0701 [2]; matched case-control, 47 controls", "value": 13, "unit": "%"},
      {"measurement": "Carriage: cases (n/N)", "setting": "HLA-DQA1*0201; DQA1*0201 carriage, ALT cases (>3xULN), Exploratory study", "value": "14/35"},
      {"measurement": "Carriage: controls (n/N)", "setting": "HLA-DQA1*0201; DQA1*0201 carriage, ALT controls, Exploratory study", "value": "58/283"},
      {"measurement": "% that carry DQA1*0201, Cholestatic", "setting": "HLA-DQA1*0201; Exploratory Study ALT Cases", "value": 25, "unit": "%"},
      {"measurement": "% that carry DQA1*0201, Hepatocellular", "setting": "HLA-DQA1*0201; Exploratory Study ALT Cases", "value": 43, "unit": "%"},
      {"measurement": "% that carry DQA1*0201, Mixed", "setting": "HLA-DQA1*0201; Exploratory Study ALT Cases", "value": 40, "unit": "%"},
      {"measurement": "N that carry DQA1*0201, Cholestatic", "setting": "HLA-DQA1*0201; Exploratory Study ALT Cases", "value": 1},
      {"measurement": "N that carry DQA1*0201, Hepatocellular", "setting": "HLA-DQA1*0201; Exploratory Study ALT Cases", "value": 9},
      {"measurement": "N that carry DQA1*0201, Mixed", "setting": "HLA-DQA1*0201; Exploratory Study ALT Cases", "value": 4},
      {"measurement": "Carriage: cases (%)", "setting": "HLA-DQB1*0202; ALT cases", "value": "(37%)"},
      {"measurement": "Carriage: cases (n/N)", "setting": "HLA-DQB1*0202; ALT cases", "value": "13/35"},
      {"measurement": "Carriage: controls (%)", "setting": "HLA-DQB1*0202; ALT controls", "value": "(17%)"},
      {"measurement": "Carriage: controls (n/N)", "setting": "HLA-DQB1*0202; ALT controls", "value": "47/281"},
      {"measurement": "Carriage: cases (%)", "setting": "HLA-DRB1*0701 [3]; ALT cases", "value": "(40%)"},
      {"measurement": "Carriage: cases (n/N)", "setting": "HLA-DRB1*0701 [3]; ALT cases", "value": "14/35"},
      {"measurement": "Carriage: controls (%)", "setting": "HLA-DRB1*0701 [3]; ALT controls", "value": "(21%)"},
      {"measurement": "Carriage: controls (n/N)", "setting": "HLA-DRB1*0701 [3]; ALT controls", "value": "59/283"},
      {"measurement": "Grade 3 ALT elevation (Common Toxicity Criteria for Adverse Events, v4.0), patients affected", "setting": "[4]", "value": 1.6, "unit": "%"},
      {"measurement": "Hy's Rule events, patients affected", "setting": "[4]", "value": 0.2, "unit": "%"}
    ]}
  ]
}
